# Results taken from patent US20230390303A1, “CANCER TREATMENT BY COMBINATION OF EP4 ANTAGONIST AND IMMUNE CHECKPOINT INHIBITOR” (priority 2020, published 2023).
# Tests used:
# Format in all cases: in vivo, human
# [1] = test system: radically unresectable advanced or recurrent colonic/rectal cancer; test: Open-label, uncontrolled study: Compound A, Nivolumab and XELOX plus Bevacizumab therapy as primary treatment; settings: Compound A 20 mg or 40 mg orally once a day + Nivolumab 360 mg IV at 3-week intervals + XELOX plus Bevacizumab therapy; RECIST Guideline 1.1; 10 months after the first patient was registered
# Text: The purpose of this study is to examine the tolerability, safety, and efficacy of a combination of Compound A, Nivolumab, and XELOX plus Bevacizumab therapy as a primary treatment in patients with radically unresectable advanced or recurrent colonic/rectal cancer. This trial can evaluate the effect of the combination of Compound A, Nivolumab, and a XELOX plus Bevacizumab therapy.
# Patients with radically unresectable advanced or recurrent colonic/rectal cancer.
# At the time of registration, patients were selected, who had not been treated with a systemic antineoplastic agent for radically unresectable advanced or recurrent colonic/rectal cancer and who met all pre-determined patient selection criteria determined in view of the patient selection criteria in each trial performed so far for Compound A, Nivolumab and XELOX plus Bevacizumab therapy. When it became clear from the registration that the criteria were not satisfied before the first administration of the investigational new drug, the administration of the investigational new drug was not started and the study was discontinued. […]
# A principal investigator or a sub-investigator measured a tumor diameter of a target lesion according to RECIST Guideline 1.1 to determine the antitumor effect. […]
# [2] = test system: curatively resectable locally advanced rectal cancer; test: Open-label, uncontrolled study: Compound A or Compound A plus Nivolumab as preoperative adjuvant therapy after preoperative chemoradiotherapy; settings: Compound A 40 mg QD oral alone then with Nivolumab 240 mg Q2W IV (cohort 1) or in combination (cohort 2), after preoperative CRT; pCR = AJCC Tumor regression grade 0 (ypT0N0); 10 months after registration of the first patient
# Text: The purpose of this study was to examine the efficacy, pharmacokinetics and safety of Compound A administered alone and/or Compound A and Nivolumab administered in combination as a preoperative adjuvant therapy after a preoperative chemoradiotherapy (CRT) for curatively resectable locally advanced rectal cancer. The trial could evaluate the effect of Compound A and/or a combination of Compound A and Nivolumab as a preoperative adjuvant therapy.
# Curatively Resectable Locally Advanced Rectal Cancer
# As the preoperative CRT, the investigational new drug was administered to a patient who was treated and satisfied the following conditions. • 45 Gy/25 times of irradiation to the pelvic cavity and 5.4 Gy/3 times of boost irradiation to the primary lesion were performed. • the administration of Capecitabine was started at a dose of 1,650 mg/m^2 (825 mg/m^2 twice a day) per day. The starting dose was determined based on Method D of dosage and administration of Xeloda (registered trademark) tablet 300. • The oral administration of Capecitabine was performed in a period corresponding to 75% of 28 times which was the number of times of irradiation of radioactive ray in combination with the irradiation of radioactive ray (for example, in the case of 50.4 Gy/28 times of irradiation, oral administration for 21 days or 42 times or more as oral administration in the morning and evening). […]
# [3] = test system: pancreatic cancer with distant metastasis; test: Open-label, uncontrolled study: Compound A, Nivolumab and mFFX therapy or GnP therapy as primary treatment; settings: RECIST Guideline 1.1
# Text: This study aims to study the tolerability, safety and efficacy of a combination of Compound A as a primary treatment, Nivolumab and mFFX therapy or GP therapy in pancreatic cancer patients with distant metastases. The trial could evaluate the effect of the combination with Compound A, Nivolumab and mFFX therapy or Gnp therapy.
# Pancreatic cancer patients with distant metastases
# At the time of registration, patients who had not been treated with systemic antineoplastic agents for pancreatic cancer with distant metastases and who met all pre-determined patient selection criteria determined in view of the patient selection criteria in each trial performed so far for Compound A, Nivolumab and mFFX therapy or GnP therapy were selected.
# Compound A was orally administered once a day at a dose of 20 mg or 40 mg per administration, wherein the administration was continued until predetermined criteria for discontinuation of administration related to Compound A was met. Note that when Compound A, Nivolumab and the mFFX therapy or GnP therapy were administered on the same day, Compound A and Nivolumab were administered first, and after Compound A and Nivolumab were administered, followed by starting of the mFFX therapy or GnP therapy. […]
# [4] = test system: advanced or recurrent non-small cell lung cancer refractory to a combination therapy including an anti-PD-1 antibody or an anti-PD-L1 antibody, and a platinum …; test: Open-label, uncontrolled study: Compound A, Nivolumab, Docetaxel and Ramucirumab as secondary therapy; settings: Compound A 20 mg or 40 mg orally once a day + Nivolumab 360 mg IV at 3-week intervals + Docetaxel 60 mg/m^2 and Ramucirumab 10 mg/kg at 3-week intervals; RECIST Guideline 1.1; 8 months after the registration of the first patient
# Text: The purpose of this study is to examine the tolerability, safety, and efficacy of a combination of Compound A, Nivolumab, Docetaxel, and Ramucirumab as a secondary therapy in non-small cell lung cancer patients who had progressed or relapsed refractory to a combination therapy including an anti-PD-1 antibody or an anti-PD-L1 antibody and a platinum preparation. This trial can evaluate the effect of combination of Compound A, Nivolumab, Docetaxel, and Ramucirumab.
# Patients with stage IV or recurrent non-small cell lung cancer
# Compound A was orally administered once a day at a dose of 20 mg or 40 mg per administration, and the administration was continued until the predetermined criteria for discontinuation of administration related to Compound A were met. […]
# A principal investigator or a sub-investigator measured a tumor diameter of a target lesion according to RECIST Guideline 1.1 to determine the antitumor effect. […] Imaging diagnosis in the treatment phase was performed at 6-week intervals (±7 days) from Day 1 of the first cycle to Week 54, and thereafter at 12-week intervals (±7 days), and the tumor diameter was measured.
# The overall response and the best overall response were diagnostic imaging results evaluated based on the RECIST Guideline 1.1. […]
compound,measurement,setting,value
"CC(C)NC(=O)c1ccc2c(c1)[C@]1(CCO2)C[C@H]1C(=O)Nc1cc(C#N)ccc1CCCC(=O)O [Compound A, 4-[4-cyano-2-({(2′R,4S)-6-[(propane-2-yl)carbamoyl]-2,3-dihydrospiro[1-benzopyran-4,1′-cyclopropane]-2′-carbonyl}amino)phenyl]butanoic acid]",cases determined to be PR,[1],2 cases
same,cases determined to be pCR,[2],3 cases
same,cases judged to be PR,"[3]; Compound A 20 mg or 40 mg orally once a day + Nivolumab 480 mg IV at 4-week intervals + GnP therapy, 9 months after registration of the first patient",two
same,case determined to be PR,"[3]; Compound A 20 mg or 40 mg orally once a day + Nivolumab 480 mg IV at 4-week intervals + mFFX therapy, 9 months after the registration of the first patient",one
same,case determined to be PR,[4],one
